Paper PMC11530130, “Peripherally restricted PICK1 inhibitor mPD5 ameliorates pain behaviors in murine inflammatory and neuropathic pain models” (JCI Insight, 2024)
Where “and” joins values, the source holds several entries; their conditions need not be identical. Equal entries are not always repeated.

Assays:
[1] = tested on: mice, CFA model of inflammatory pain; test: CFA model, elevated plus maze; format: in vivo, mouse
[2] = Stability of mPD5 in PBS, 30 days at 5 °C and 25 °C, HPLC-UV-MS
Method: SUPPORTING INFORMATION: Method Section.
Sex as a biological variable.
All peptides were ordered from WuXI AppTec (Shanghai, China) or TAG-Copenhagen […]
Assessment of solubility and stability of mPD5.
Solubility was determined by visual inspection of samples dissolved in increasing concentration in 10 mM PBS as judged by full transparency and monophasic appearance.
Stability was addressed by […] for four concentrations (2, 20, 50, and 200 µM), by leaving mPD5 in PBS at 5 °C and 25 °C for 30 days followed by HPLC-UV-MS. […]
Superdex200 Increase 10/300.

[3] = Flow-induced dispersion analysis (FIDA), critical micelle concentration; format: physicochemical
Excerpt: Supplemental Figure S2. FIDA analysis of mPD5. (A) Molecular properties of mPD5.
(B) Taylorgrams for different concentrations of mPD5 using an uncoated capillary.
(C) Taylorgrams for different concentrations of mPD5 using a Poly-L-ornithine capillary.
(D) Taylorgrams for different concentrations of mPD5 using an HS-coated capillary.
(E) Graphical representation of mPD5 absorption using different coating strategies (B-D).
(F) Binding isotherm of mPD5 combining optimal coatings for different concentrations results in a CMC of 12 µM. […]
FIDA was carried out using a fluorescently labelled (AF488-NHS) mPD5 analogue, and fluorescence was recorded at 488 nm using mPD5-AF488 (25% labelling efficiency) as a tracer (100 nM), using the standard protocol recommended by the manufacturer, in short, mPD5 and mPD5-AF488 (25% labelling efficiency) was loaded to the FIDA1 instrument, and peptide sample was injected into the capillary followed by a buffer injection. The diffusion of the peptide could then be observed using 488 nm fluorescence, and the hydrodynamic radius was calculated using the FIDA software 2.0 using a single Gaussian distribution fit, at 75% and curve smoothing. […]
Concentration series of mPD5 ranging from 0.18 mg/mL to 9.37 mg/mL was prepared in buffer containing 50 mM Tris-HCl (pH 7.4) and 125 mM NaCl. Samples were measured at the P12 SAXS Beamline, PetraIII, DESY, Hamburg Germany (2). […]

[4] = 30 days 5°C, nominal conc. 2 μM
[5] = 30 days 5°C, nominal conc. 20 μM
[6] = 30 days 5°C, nominal conc. 50 μM
[7] = 30 days 5°C, nominal conc. 200 μM
[8] = 30 days 25°C, nominal conc. 2 μM
[9] = 30 days 25°C, nominal conc. 20 μM
[10] = 30 days 25°C, nominal conc. 50 μM
[11] = 30 days 25°C, nominal conc. 200 μM

CCCCCCCCCCCCCC(=O)N(CCOCCOCCC(=O)N[C@@H](Cc1c[nH]cn1)C(=O)N[C@@H](Cc1c[nH]c2ccccc12)C(=O)N[C@@H](CC(C)C)C(=O)N[C@@H](CCCCN)C(=O)N[C@H](C(=O)O)C(C)C)CCOCCOCCC(=O)N[C@@H](Cc1c[nH]cn1)C(=O)N[C@@H](Cc1c[nH]c2ccccc12)C(=O)N[C@@H](CC(C)C)C(=O)N[C@@H](CCCCN)C(=O)N[C@H](C(=O)O)C(C)C [mPD5, myristoyl-NPEG4-(HWLKV)2]
time spent in open arms relative to sham, individual mice ([1]; 1 hour after s.c. 10 μmol/kg): 105.738 and 52.6613 and 140.768 and 68.9703 and 55.3027 and 160.227 and 143.859 and 0 and 156.14 and 28.0701 and 63.1578
time spent in the open arms of the elevated plus maze ([1]; s.c. 10 μmol/kg): no longer significantly different from the naive mice
Measured conc. mPD5 [2, 4]: 0.5 µM
UV-HPLC peak area [2, 4]: 37
pH [2, 4]: 7.37
Measured conc. mPD5 [2, 5]: 17 µM
UV-HPLC peak area [2, 5]: 1196
pH [2, 5]: 7.40
Measured conc. mPD5 [2, 6]: 49 µM
UV-HPLC peak area [2, 6]: 3347
pH [2, 6]: 7.39
Measured conc. mPD5 [2, 7]: 194 µM
UV-HPLC peak area [2, 7]: 6665
pH [2, 7]: 7.37
Measured conc. mPD5 [2, 8]: 0.4 µM
UV-HPLC peak area [2, 8]: 26
pH [2, 8]: 7.37
Measured conc. mPD5 [2, 9]: 17 µM
UV-HPLC peak area [2, 9]: 1161
pH [2, 9]: 7.39
Measured conc. mPD5 [2, 10]: 48 µM
UV-HPLC peak area [2, 10]: 3325
pH [2, 10]: 7.41
Measured conc. mPD5 [2, 11]: 203 µM
UV-HPLC peak area [2, 11]: 7005
pH [2, 11]: 7.36
shelf stability ([2]; PBS, 30 days, 5°C and 25°C): excellent shelf stability
critical micelle concentration (CMC) ([3]; FIDA binding isotherm, optimal coatings combined): 12 µM
hydrodynamic radius (RH) ([3]; FIDA, micellar mPD5): ≈ 30 Å
